Results published in patent US20110207726A1, “Inhibitors of Human Cathepsin L, Cathepsin B, and Cathepsin S” (The Trustees of the University of Pennsylvania, priority 2008, published 2011).
Read-outs that look alike come from different tables or passages of the source.

Experiments:
Format in all cases: biochemical
human liver cathepsin L = biological target: T1, human liver cathepsin L (Homo sapiens, UniProt P07711); experiment: Cathepsin L assay, IC50 determination
T1 construct: 8.7 ng/mL human liver cathepsin L (Calbiochem 219402); purchased Calbiochem 219402; host or cells: human liver
Procedure: Assay buffer consisted of 20 mM sodium acetate, 1 mM ethylenediaminetetraacetic acid (EDTA) and 5 mM cysteine, pH 5.5. Cathepsin L was incubated in assay buffer for 30 minutes prior to dispensing into wells to allow for efficient reduction of the active site cysteine required for full enzymatic activity.
Upon activation, cathepsin L (300 pM, 8.7 ng/mL) was incubated with 1 microM Z-Phe-Arg-AMC substrate (Sigma C9521) and test compound in […] of assay buffer for 1 hour at room temperature.
All reactions were performed in 20 mM sodium acetate buffer containing 5 mM cysteine and 1 mM EDTA, pH 5.5. Reaction progress was monitored using the Envision microplate reader. IC50 values were measured in triplicate.

Human liver cathepsin B = biological target: T2, Human liver cathepsin B (Homo sapiens, UniProt P07858); experiment: Cathepsin B assay, IC50 determination; conditions: Table 1; read-out: IC50 Cat B
T2 construct: Human liver cathepsin B (Calbiochem 219362, 65 ng/mL); purchased Calbiochem 219362; host or cells: human liver
Procedure: (§1) Human spleen cathepsin S (Calbiochem 219344, 40 ng/mL) was assayed using 15 microM Z-Phe-Arg-AMC substrate. Human liver cathepsin B (Calbiochem 219362, 65 ng/mL) was assayed using 15 microM Z-Arg-Arg-AMC substrate (Bachem I-1135). All reactions were performed in 20 mM sodium acetate buffer containing 1 mM EDTA and 5 mM cysteine, pH 5.5.
(§2) Compounds were serially diluted in DMSO and transferred into a 96-well Corning 3686 assay microplate to give a 16-point two-fold serial dilution dose response ranging from 25 microM to 760 pM. Human liver cathepsin L (Calbiochem 219402) was activated by incubating with assay buffer for 30 min. Upon activation, cathepsin L (300 pM, 8.7 ng/mL) was incubated with 1 microM Z-Phe-Arg-AMC substrate (Sigma C9521) and test compound in […] of assay buffer for 1 hour at room temperature. Fluorescence of AMC released by enzyme-catalyzed hydrolysis of Z-Phe-Arg-AMC was read on a PerkinElmer Envision microplate reader (excitation 355 nm, emission 460 nm). Data were scaled using internal controls and fitted to a four-parameter logistic model (IDBS XLfit equation 205) to obtain IC50 values in triplicate.
(§3) Compound No. 1 was assayed for inhibition against papain and cathepsins B, G, K, S, and V. Papain from Carica papaya (Calbiochem 5125, 11 ng/mL), human cathepsin K (Calbiochem 342001, 35 ng/mL), human spleen cathepsin S (Calbiochem 219344, 40 ng/mL), and human cathepsin V (Calbiochem 219467, 39 ng/ml) were assayed using Z-Phe-Arg-AMC substrate at 20 μM, 20 μM, 15 μM, and 1 μM, respectively. Human liver cathepsin B (Calbiochem 219362, 65 ng/mL) was assayed using 15 μM Z-Arg-Arg-AMC substrate (Bachem I-1135). Human neutrophil cathepsin G (Calbiochem 219373, 4.2 μg/mL) was assayed using 15 μM Suc-Ala-Ala-Pro-Phe-AMC substrate (Sigma S9761). All reactions were performed in 20 mM sodium acetate buffer containing 5 mM cysteine and 1 mM EDTA, pH 5.5. Reaction progress was monitored using the Envision microplate reader. IC50 values were measured in triplicate.

Human spleen cathepsin S = biological target: T3, Human spleen cathepsin S (Homo sapiens, UniProt P25774); experiment: Cathepsin S assay, IC50 determination; conditions: Table 1; read-out: IC50 Cat S
T3 construct: Human spleen cathepsin S (Calbiochem 219344, 40 ng/mL); purchased Calbiochem 219344; host or cells: human spleen
Procedure: as §1, §2, §3

[1] = Table 17, n = 3, C, S or O at the sulfur position, read-out: Cathepsin L inhibitory activity IC50

T1 sequence (P07711 114-288 limits assumed): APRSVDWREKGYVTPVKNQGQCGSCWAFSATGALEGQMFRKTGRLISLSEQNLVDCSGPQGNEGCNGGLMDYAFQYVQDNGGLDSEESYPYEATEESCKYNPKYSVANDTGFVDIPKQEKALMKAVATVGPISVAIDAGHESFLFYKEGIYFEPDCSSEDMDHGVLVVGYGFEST
T1 sequence (P07711 292-333 limits assumed): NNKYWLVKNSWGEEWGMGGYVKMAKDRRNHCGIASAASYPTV
T3 sequence (P25774 115-331): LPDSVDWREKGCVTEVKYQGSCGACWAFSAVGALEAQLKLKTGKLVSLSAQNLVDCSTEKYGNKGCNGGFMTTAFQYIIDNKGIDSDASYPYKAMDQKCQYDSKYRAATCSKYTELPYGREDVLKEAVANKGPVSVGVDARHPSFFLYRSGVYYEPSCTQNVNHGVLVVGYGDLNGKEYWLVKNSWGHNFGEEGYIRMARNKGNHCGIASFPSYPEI

IC50 (human liver cathepsin L; [1])	IC50 (human liver cathepsin L; Table 1, read-out: IC50 Cat L)	IC50 (Human liver cathepsin B)	IC50 (Human spleen cathepsin S)	SMILES	cathepsin L inhibitory activity (in words) (human liver cathepsin L)	IC50 (human liver cathepsin L; read-out: IC50 against cathepsin L)
28 ± 4 nM				CCc1ccccc1NC(=O)COC(=O)NNC(=O)C(Cc1c[nH]c2ccccc12)NC(=O)OC(C)(C)C (stereo not shown) [2-ethylanilide O]		
				CCc1ccccc1NC(=O)CSc1nnc([C@@H](N)Cc2c[nH]c3ccccc23)o1 [Compound (ii)]	completely devoid of activity	
	96 nM	4.46 µM	930 nM	CC(C)(C)OC(=O)N[C@@H](Cc1c[nH]c2ccccc12)C(=O)NNC(=O)SCC(=O)N1CCCc2ccccc21 [Compound No. 5]		
	29 nM	6.59 µM	320 nM	CC(C)(C)OC(=O)N[C@@H](Cc1c[nH]c2ccccc12)C(=O)NNC(=O)SCC(=O)NCCc1ccccc1 [Compound No. 7]		
	1030 nM	> 25 µM	2900 nM	CC(C)(C)OC(=O)N[C@@H](Cc1c[nH]c2ccccc12)C(=O)NNC(=O)SCC(=O)N1CCc2ccc(Br)cc2C1c1ccccc1 (stereo partly shown) [Compound No. 13]		
	1290 nM	2.03 µM	690 nM	CCc1ccccc1NC(=O)CSC(=O)NNC(=O)[C@H](CCSC)NC(=O)OC(C)(C)C [Compound No. 17]		
	1340 nM	2.21 µM	630 nM	CSCC[C@H](NC(=O)OC(C)(C)C)C(=O)NNC(=O)SCC(=O)N1CCCc2ccccc21 [Compound No. 18]		
	520 nM	2.31 µM	410 nM	CSCC[C@H](NC(=O)OC(C)(C)C)C(=O)NNC(=O)SCC(=O)N1CCc2ccccc2C1 [Compound No. 19]		
	330 nM	2.42 µM	310 nM	CSCC[C@H](NC(=O)OC(C)(C)C)C(=O)NNC(=O)SCC(=O)NCCc1c[nH]c2ccccc12 [Compound No. 20]		
	660 nM	0.87 µM	3740 nM	CCc1ccccc1NC(=O)CSC(=O)NNC(=O)[C@@H](NC(=O)OC(C)(C)C)C(C)C [Compound No. 21]		
	680 nM	0.63 µM	4240 nM	CC(C)[C@H](NC(=O)OC(C)(C)C)C(=O)NNC(=O)SCC(=O)N1CCCc2ccccc21 [Compound No. 22]		
	450 nM	0.44 µM	7240 nM	CC(C)[C@H](NC(=O)OC(C)(C)C)C(=O)NNC(=O)SCC(=O)N1CCc2ccccc21 [Compound No. 23]		
	110 nM	> 25 µM	620 nM	CC(C)[C@H](NC(=O)OC(C)(C)C)C(=O)NNC(=O)SCC(=O)Nc1ccc2c(c1)CCCC2 [Compound No. 24]		
	≥ 25000 nM	> 25 µM	> 25000 nM	CCc1ccccc1NC(=O)CSC(=O)NNC(=O)[C@H](C)NC(=O)OC(C)(C)C [Compound No. 25]		
	≥ 25000 nM	> 25 µM	> 25000 nM	C[C@H](NC(=O)OC(C)(C)C)C(=O)NNC(=O)SCC(=O)N1CCCc2ccccc21 [Compound No. 26]		
	≥ 25000 nM	> 25 µM	> 25000 nM	CCc1ccccc1NC(=O)CSC(=O)NNC(=O)[C@H](CCC(=O)O)NC(=O)OC(C)(C)C [Compound No. 27]		

IC50 (human liver cathepsin L; [1])	IC50 (human liver cathepsin L; Table 1, read-out: IC50 Cat L)	IC50 (Human liver cathepsin B)	IC50 (Human spleen cathepsin S)	SMILES	cathepsin L inhibitory activity (in words) (human liver cathepsin L)	IC50 (human liver cathepsin L; read-out: IC50 against cathepsin L)
	1090 nM	2.63 µM	1650 nM	CCc1ccccc1NC(=O)CSC(=O)NNC(=O)[C@H](CC(C)C)NC(=O)OC(C)(C)C [Compound No. 29]		
	> 25000 nM	> 25 µM	> 25000 nM	CCc1ccccc1NCCSC(=O)NNC(=O)[C@H](CC(C)C)NC(=O)OC(C)(C)C [Compound No. 30]		
	1640 nM	2.72 µM	1640 nM	CC(C)C[C@H](NC(=O)OC(C)(C)C)C(=O)NNC(=O)SCC(=O)N1CCCc2ccccc21 [Compound No. 31]		
	> 25000 nM	> 25 µM	> 25000 nM	CCc1ccccc1NC(=O)CSC(=O)NNC(=O)[C@@H]1CCCN1C(=O)OC(C)(C)C [Compound No. 32]		
	> 25000 nM	> 25 µM	> 25000 nM	CC(C)(C)OC(=O)N1CCC[C@H]1C(=O)NNC(=O)SCC(=O)N1CCCc2ccccc21 [Compound No. 33]		
	> 25000 nM	> 25 µM	> 25000 nM	CCc1ccccc1NCCSC(=O)NNC(=O)[C@H](Cc1ccccc1)NC(=O)OC(C)(C)C [Compound No. 35]		
	830 nM	5.08 µM	2830 nM	CCc1ccccc1NC(=O)CSC(=O)NNC(=O)[C@H](Cc1ccc(OCc2ccccc2)cc1)NC(=O)OC(C)(C)C [Compound No. 36]		
	590 nM	2.77 µM	2080 nM	CC(C)(C)OC(=O)N[C@@H](Cc1ccc(OCc2ccccc2)cc1)C(=O)NNC(=O)SCC(=O)Nc1ccccc1[N+](=O)[O-] [Compound No. 38]		
	86 nM	3.19 µM	1310 nM	CC(C)(C)OC(=O)N[C@@H](Cc1ccc(OCc2ccccc2)cc1)C(=O)NNC(=O)SCC(=O)N1CCc2ccccc2C1 [Compound No. 39]		
	700 nM	3.12 µM	8000 nM	CC(C)(C)OC(=O)N[C@@H](Cc1ccc(OCc2ccccc2)cc1)C(=O)NNC(=O)SCC(=O)N1CCc2ccccc21 [Compound No. 40]		
	1560 nM	3.03 µM	3980 nM	CC(C)(C)OC(=O)N[C@@H](Cc1ccc(OCc2ccccc2)cc1)C(=O)NNC(=O)SCC(=O)N1CCOc2ccccc21 [Compound No. 41]		
	140 nM	> 25 µM	1080 nM	CCOC(=O)c1ccc(NC(=O)CSC(=O)NNC(=O)[C@H](Cc2ccc(OCc3ccccc3)cc2)NC(=O)OC(C)(C)C)cc1 [Compound No. 43]		
	13700 nM	3.67 µM	3320 nM	CCc1ccccc1NC(=O)CSC(=O)NNC(=O)[C@@H](NC(=O)OC(C)(C)C)C(C)OCc1ccccc1 (stereo partly shown) [Compound No. 44]		
	> 25000 nM	4.35 µM	5150 nM	CC(OCc1ccccc1)[C@H](NC(=O)OC(C)(C)C)C(=O)NNC(=O)SCC(=O)N1CCCc2ccccc21 (stereo partly shown) [Compound No. 45]		
				CCc1ccccc1NC(=O)CSC(=O)NNC(=O)[C@@H](Cc1c[nH]c2ccccc12)NC(=O)OC(C)(C)C [R-enantiomer of Compound No. 1]		34000 nM
41 ± 2 nM				CC(C)(C)OC(=O)NC(Cc1c[nH]c2ccccc12)C(=O)NNC(=O)SCC(=O)N1CCCc2ccccc21 (stereo not shown) [Tetrahydroquinoline S]		

SMILES	IC50 (human liver cathepsin L; [1])	IC50 (human liver cathepsin L; Table 1, read-out: IC50 Cat L)	IC50 (Human liver cathepsin B)	IC50 (Human spleen cathepsin S)	cathepsin L inhibitory activity (in words) (human liver cathepsin L)	IC50 (human liver cathepsin L; read-out: IC50 against cathepsin L)
CCOC(=O)c1cccc(NC(=O)CSC(=O)NNC(=O)[C@H](Cc2c[nH]c3ccccc23)NC(=O)OC(C)(C)C)c1 [Compound No. 8]		62 nM	> 25 µM	680 nM		
CCOC(=O)c1ccc(NC(=O)CSC(=O)NNC(=O)[C@H](Cc2c[nH]c3ccccc23)NC(=O)OC(C)(C)C)cc1 [Compound No. 9]		57 nM	> 25 µM	580 nM		
CC(C)(C)OC(=O)N[C@@H](Cc1c[nH]c2ccccc12)C(=O)NNC(=O)SCC(=O)N1CCOc2ccccc21 [Compound No. 10]		220 nM	3.23 µM	950 nM		
CC(C)(C)OC(=O)N[C@@H](Cc1c[nH]c2ccccc12)C(=O)NNC(=O)SCC(=O)N1CCc2ccccc2C1 [Compound No. 12]		19 nM	3.25 µM	530 nM		
CC(C)(C)OC(=O)N[C@@H](Cc1c[nH]c2ccccc12)C(=O)NNC(=O)SC1CCN(c2ccccc2)C1=O (stereo partly shown) [Compound No. 14]		1050 nM	14 µM	2070 nM		
COC(=O)CSC(=O)NNC(=O)[C@H](Cc1c[nH]c2ccccc12)NC(=O)OC(C)(C)C [Compound No. 15]		98 nM	6.33 µM	570 nM		
CCc1ccccc1NC(=O)CSC(=O)NNC(=O)[C@@H](Cc1c[nH]c2ccccc12)NC(=O)OC(C)(C)C [Compound No. 16]		> 25000 nM	> 25 µM	> 25000 nM		
